Reference: paper PMC6811774, “Potent, selective, and subunit‐dependent activation of TRPC5 channels by a xanthine derivative” (British Journal of Pharmacology, 2019)
Several values for one entry are separate records, joined by “and”; a condition that tells them apart may be missing. Identical values can stand only once.

Tests used:
[1] = target: T1, TRPC5-SYFP2 (TRPC5:C5 channels) (Homo sapiens, UniProt Q9UL62); test: [Ca2+]i measurement (Fura-2, FlexStation) in (Tet+) HEK T-REx cells expressing hTRPC5-SYFP2; type: cell-based
T1 construct: expressed in transfected cells
T1 sequence (Q9UL62 1-973): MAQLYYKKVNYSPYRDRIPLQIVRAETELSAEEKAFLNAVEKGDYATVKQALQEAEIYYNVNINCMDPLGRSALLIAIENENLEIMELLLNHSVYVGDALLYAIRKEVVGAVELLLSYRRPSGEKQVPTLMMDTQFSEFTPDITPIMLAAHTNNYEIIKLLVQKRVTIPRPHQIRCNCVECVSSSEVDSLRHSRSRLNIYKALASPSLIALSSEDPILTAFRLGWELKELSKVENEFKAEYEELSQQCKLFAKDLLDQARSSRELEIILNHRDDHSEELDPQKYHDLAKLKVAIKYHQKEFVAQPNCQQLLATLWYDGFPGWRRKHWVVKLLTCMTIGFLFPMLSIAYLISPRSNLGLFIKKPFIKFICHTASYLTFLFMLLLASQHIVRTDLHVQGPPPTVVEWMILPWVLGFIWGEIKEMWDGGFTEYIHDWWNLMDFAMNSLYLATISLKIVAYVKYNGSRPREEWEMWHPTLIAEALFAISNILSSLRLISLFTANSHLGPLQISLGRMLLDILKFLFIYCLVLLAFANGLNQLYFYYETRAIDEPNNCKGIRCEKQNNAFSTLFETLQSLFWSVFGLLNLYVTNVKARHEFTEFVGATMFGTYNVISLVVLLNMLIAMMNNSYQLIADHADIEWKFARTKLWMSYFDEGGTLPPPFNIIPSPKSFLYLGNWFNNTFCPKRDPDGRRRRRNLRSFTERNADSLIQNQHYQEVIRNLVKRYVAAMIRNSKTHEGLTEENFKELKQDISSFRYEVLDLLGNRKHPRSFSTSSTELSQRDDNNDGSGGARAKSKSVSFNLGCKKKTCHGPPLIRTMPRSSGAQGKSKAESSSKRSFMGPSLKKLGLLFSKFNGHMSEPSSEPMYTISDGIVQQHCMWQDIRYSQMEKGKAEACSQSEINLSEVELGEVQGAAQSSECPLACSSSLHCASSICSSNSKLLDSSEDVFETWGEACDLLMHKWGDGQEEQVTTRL
Text: To facilitate cloning of TRPC5‐SYFP2 and TRPC4‐SYFP2, a pcDNA™4/TO expression vector (ThermoFisher Scientific, Waltham, MA, USA), into which a four amino acid linker (ASAS) flanked by AgeI and SacII restriction sites had been introduced between EcoRI and XhoI restriction sites, was used (Naylor et al., 2016). Human TRPC4β was inserted between BamHI and AgeI restriction sites as described previously (Ludlow et al., 2017). Human TRPC5 (forward primer: 5′ GCTTGGTACCGCCACCATG 3′ and reverse primer: 5′ […] 3′) was inserted upstream of the linker between KpnI and AgeI restriction sites using hTRPC5/pcDNA™4/TO (Zeng et al., 2004) as a PCR template. Both constructs contained an N‐terminal Kozak sequence. SYFP2 was inserted downstream of the linker between SacII and XbaI restriction sites using pSYFP2‐C1 as a PCR template (forward primer, 5′ […] 3′; reverse primer, 5′ […] 3′). pSYFP2‐C1 was a gift from Dorus Gadella (Addgene plasmid #22878; http://n2t.net/addgene:22878; RRID:Addgene_22878; Kremers, Goedhart, van Munster, & Gadella, 2006). Plasmids were sequenced to verify identity.
HEK T‐REx™ cell line was transfected with TRPC5‐SYFP2 or TRPC4‐SYFP2 using FuGENE® HD transfection reagent. After 48 hr, cells were put under antibiotic selection using 400 μg·ml^−1 zeocin and 10 μg·ml^−1 blasticidin S (Invivogen, San Diego, California, USA). Medium changes were carried out regularly to remove dead cells. HEK T‐REx cells expressing tetracycline‐inducible human TRPC5, TRPC4–C1, and TRPC5–C1 were created as described previously (Akbulut et al., 2015; Ludlow et al., 2017; Rubaiy, Ludlow, Henrot, et al., 2017). TRPC5–C1 and TRPC4–C1 concatemers allow expression of functional channels with defined 2:2 stoichiometry that display ion permeability and current–voltage relationships distinct from those of homomeric TRPC4:C4 or TRPC5:C5 channels and consistent with those obtained upon co‐expression of TRPC1 with TRPC4 or TRPC5 (Ludlow et al., 2017; Rubaiy, Ludlow, Bon, & Beech, 2017; Rubaiy, Ludlow, Henrot, et al., 2017). Cells were cultured in DMEM‐F12 GlutaMAX (Invitrogen, Paisley, UK) containing 10% FBS (Sigma‐Aldrich, Gillingham, UK), with the addition of blasticidin (10 μg·ml^−1) and zeocin (400 μg·ml^−1) to maintain the stable incorporation of the tetracycline repressor and the channel of interest, respectively. Expression of proteins was induced by the addition of tetracycline (1 μg·ml^−1, 24 hr). Cells were maintained in a humidified incubator with 5% CO2 at 37°C. HEK 293 cells stably expressing tetracycline‐regulated human http://www.guidetopharmacology.org/GRAC/ObjectDisplayForward?objectId=494 were prepared similarly and have also been described previously (McHugh, Flemming, Xu, Perraud, & Beech, 2003). For experiments using transient co‐expression of TRPC1 and TRPC5, HEK cells at 40–60% confluency were transfected with pIRES2‐AcGFP1 and pIRES2‐DsRed‐Express2 plasmids containing human TRPC1 and TRPC5, respectively, using Lipofectamine 3000 (ThermoFisher Scientific, Yokohama, Japan). All experiments using transient expression were performed within 48 hr after transfection. A498 cells were cultured in Minimum Essential Medium containing Earle's salts (ThermoFisher Scientific, Loughborough, UK), supplemented with 10% FBS and penicillin–streptomycin (100 units per ml^−1, 100 μg·ml^−1; ThermoFisher Scientific, Loughborough, UK). CHO cells stably expressing http://www.guidetopharmacology.org/GRAC/ObjectDisplayForward?objectId=510 were maintained in Ham's Nutrient Mixture F12 (ThermoFisher Scientific, Loughborough, UK) supplemented with 10% FBS, penicillin–streptomycin, and 1 mg·ml^−1 G418 (InvivoGen, San Diego, California, USA). For experiments using hTRPC3 and hTRPC6, WT HEK 293 cells were transfected with hTRPC3 (Naylor et al., 2016) or hTRPC6 (cloned into pcDNA3) using jetPRIME® transfection reagent (VWR, Lutterworth, UK). Cells were assayed 48 hr after transfection. […]

TRPC5:C5 = tested on: TRPC5:C5; design: method as in Rubaiy, Ludlow, Henrot, et al., 2017; conditions: EA-mediated activation, 10 nM EA; ref Rubaiy, Ludlow, Henrot, et al., 2017; read-out: IC50, inhibition of TRPC5:C5; cited from earlier work

Question: For Cn1c(=O)n(CCCO)c(=O)c2c1nc(Oc1cccc(OC(F)(F)F)c1)n2Cc1ccc(Cl)cc1 [Pico145, reference compound], which IC50 [1] is on record?
Answer: The IC50 was 2 nM.

Question: What about the “Concentration giving maximal inhibition of AM237 response” value ([1]; 100 nM AM237) of the same compound?
Answer: The value was 10 nM.

Question: And the “Hill slope, inhibition of AM237 response” value ([1]; 100 nM AM237)?
Answer: The value was “–1.3”.

Question: What about the “Mode of inhibition of AM237-mediated TRPC5:C5 activation” value ([1]; surmountable, parallel rightward shifts, confirmed by patch-clamp) of the same compound?
Answer: Its value is “competitive antagonist”.

Question: What about the IC50 (TRPC5:C5) of the same compound?
Answer: Its IC50 is 1 nM and ~1 nM.
